Measurements from ChEMBL document CHEMBL1201862, “PubChem BioAssay data set” (2004).
Active and inactive are the calls of the source.

Key:
[1] = biological target: T1, Mannose-6-phosphate isomerase (Homo sapiens, UniProt P34949); assay: human PMI inhibitors, high substrate, primary screen, biochemical, fluorescence intensity, high mannose 6-phosphate (AID 1220)
T1 sequence (P34949 whole entry): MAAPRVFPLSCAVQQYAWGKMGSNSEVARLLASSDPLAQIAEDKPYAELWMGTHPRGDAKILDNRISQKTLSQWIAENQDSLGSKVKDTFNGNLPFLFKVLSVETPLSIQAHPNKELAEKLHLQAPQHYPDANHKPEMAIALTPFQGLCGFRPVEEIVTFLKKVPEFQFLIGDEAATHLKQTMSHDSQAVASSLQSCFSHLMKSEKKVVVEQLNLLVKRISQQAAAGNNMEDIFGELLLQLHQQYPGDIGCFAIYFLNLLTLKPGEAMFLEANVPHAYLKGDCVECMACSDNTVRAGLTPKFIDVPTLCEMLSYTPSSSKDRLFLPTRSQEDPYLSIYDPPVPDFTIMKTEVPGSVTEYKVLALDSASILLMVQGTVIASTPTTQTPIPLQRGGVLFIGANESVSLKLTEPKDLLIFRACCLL

Caspase-3 = biological target: T2, Caspase-3 (Homo sapiens, UniProt P42574); type: functional;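 further: Dose-response selectivity test against caspase-3 for candidate inhibitors of sentrin-specific proteases (SENPs)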
T2 sequence (P42574 whole entry): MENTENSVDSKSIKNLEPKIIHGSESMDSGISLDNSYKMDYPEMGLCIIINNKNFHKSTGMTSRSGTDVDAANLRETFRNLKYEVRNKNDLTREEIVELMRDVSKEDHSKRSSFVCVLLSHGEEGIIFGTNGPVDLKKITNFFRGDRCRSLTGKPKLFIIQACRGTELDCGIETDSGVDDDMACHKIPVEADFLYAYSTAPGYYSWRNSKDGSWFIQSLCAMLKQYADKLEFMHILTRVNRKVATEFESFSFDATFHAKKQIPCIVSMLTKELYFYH

[2] = biological target: T3, Sentrin-specific protease 7 (Homo sapiens, UniProt Q9BQF6); type: functional;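 further: Luminescence-based dose-response confirmation of ultra-high-throughput screening hits, measuring inhibition of SENP7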
T3 sequence (Q9BQF6 whole entry): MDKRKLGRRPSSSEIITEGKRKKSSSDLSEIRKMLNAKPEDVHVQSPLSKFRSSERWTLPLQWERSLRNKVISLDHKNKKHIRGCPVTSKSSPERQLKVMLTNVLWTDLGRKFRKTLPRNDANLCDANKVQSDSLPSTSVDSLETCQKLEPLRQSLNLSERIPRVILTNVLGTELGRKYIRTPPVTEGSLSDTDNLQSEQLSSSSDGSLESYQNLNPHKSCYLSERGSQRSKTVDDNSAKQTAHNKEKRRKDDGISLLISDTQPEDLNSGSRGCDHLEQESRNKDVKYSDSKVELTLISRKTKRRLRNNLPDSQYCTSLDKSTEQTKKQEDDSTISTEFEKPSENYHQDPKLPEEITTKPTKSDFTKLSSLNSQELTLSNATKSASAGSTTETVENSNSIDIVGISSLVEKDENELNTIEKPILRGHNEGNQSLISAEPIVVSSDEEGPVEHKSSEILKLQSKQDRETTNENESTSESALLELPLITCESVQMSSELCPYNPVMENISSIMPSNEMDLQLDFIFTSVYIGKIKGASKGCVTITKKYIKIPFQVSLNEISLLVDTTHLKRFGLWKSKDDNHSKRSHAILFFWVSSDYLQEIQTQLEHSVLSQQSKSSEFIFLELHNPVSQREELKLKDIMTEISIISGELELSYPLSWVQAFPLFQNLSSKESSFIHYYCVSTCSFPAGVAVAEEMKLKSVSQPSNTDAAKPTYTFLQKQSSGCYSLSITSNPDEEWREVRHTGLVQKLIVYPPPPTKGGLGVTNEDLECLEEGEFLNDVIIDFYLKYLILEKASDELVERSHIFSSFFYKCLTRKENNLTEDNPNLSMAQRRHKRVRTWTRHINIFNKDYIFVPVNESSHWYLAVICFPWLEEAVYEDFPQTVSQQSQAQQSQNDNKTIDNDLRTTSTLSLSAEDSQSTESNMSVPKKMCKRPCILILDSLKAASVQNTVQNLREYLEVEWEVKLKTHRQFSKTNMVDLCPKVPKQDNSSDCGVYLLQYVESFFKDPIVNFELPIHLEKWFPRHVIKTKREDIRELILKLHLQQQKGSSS

[3] = biological target: T4, Sentrin-specific protease 6 (Homo sapiens, UniProt Q9GZR1); type: functional;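 further: Luminescence-based dose-response confirmatory assay of SENP6 inhibition, following up an ultra-high-throughput screen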
T4 sequence (Q9GZR1 whole entry): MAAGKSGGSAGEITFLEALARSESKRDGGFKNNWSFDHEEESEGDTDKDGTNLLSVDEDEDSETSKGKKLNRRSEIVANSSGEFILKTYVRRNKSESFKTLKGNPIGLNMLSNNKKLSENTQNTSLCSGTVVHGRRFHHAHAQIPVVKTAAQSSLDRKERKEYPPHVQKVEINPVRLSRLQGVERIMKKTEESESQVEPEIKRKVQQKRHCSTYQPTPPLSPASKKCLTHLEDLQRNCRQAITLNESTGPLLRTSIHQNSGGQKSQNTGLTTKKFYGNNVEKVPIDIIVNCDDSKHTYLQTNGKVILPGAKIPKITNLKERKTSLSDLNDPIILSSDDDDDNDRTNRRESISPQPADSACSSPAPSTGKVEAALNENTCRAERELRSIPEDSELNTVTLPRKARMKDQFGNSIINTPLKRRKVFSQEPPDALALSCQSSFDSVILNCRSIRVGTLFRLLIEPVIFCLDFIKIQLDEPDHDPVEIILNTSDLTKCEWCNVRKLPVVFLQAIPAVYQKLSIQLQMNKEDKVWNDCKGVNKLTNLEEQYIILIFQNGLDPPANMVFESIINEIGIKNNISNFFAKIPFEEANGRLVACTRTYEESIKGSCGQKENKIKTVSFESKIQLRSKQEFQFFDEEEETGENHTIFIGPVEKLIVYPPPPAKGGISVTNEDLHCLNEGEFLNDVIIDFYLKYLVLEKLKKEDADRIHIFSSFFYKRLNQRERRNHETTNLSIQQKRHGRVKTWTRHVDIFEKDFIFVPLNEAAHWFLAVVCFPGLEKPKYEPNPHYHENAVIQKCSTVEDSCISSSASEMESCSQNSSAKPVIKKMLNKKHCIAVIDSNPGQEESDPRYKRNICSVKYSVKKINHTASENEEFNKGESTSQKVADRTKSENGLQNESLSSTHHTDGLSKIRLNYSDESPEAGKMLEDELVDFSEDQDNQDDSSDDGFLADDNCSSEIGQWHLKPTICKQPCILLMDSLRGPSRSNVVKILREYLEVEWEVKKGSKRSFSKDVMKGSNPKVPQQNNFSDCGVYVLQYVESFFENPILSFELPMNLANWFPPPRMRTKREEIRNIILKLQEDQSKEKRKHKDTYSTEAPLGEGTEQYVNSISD

[4] = biological target: T5, Sentrin-specific protease 8 (Homo sapiens, UniProt Q96LD8); type: functional;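 further: luminescence read-out of SENP8 inhibition, dose-response confirmation following an ultra-high-throughput screen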
T5 sequence (Q96LD8 whole entry): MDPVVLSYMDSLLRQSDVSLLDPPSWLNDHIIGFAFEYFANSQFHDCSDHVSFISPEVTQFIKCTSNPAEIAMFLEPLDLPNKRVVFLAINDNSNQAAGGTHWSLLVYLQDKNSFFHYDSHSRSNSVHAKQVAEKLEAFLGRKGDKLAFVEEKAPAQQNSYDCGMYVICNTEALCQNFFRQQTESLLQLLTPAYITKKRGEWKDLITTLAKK

BJ [5] = assay: cytotoxicity toward BJ-TERT fibroblasts, dose response, cell-based, RAS-independent, luminescence (AID 1933); type: functional; conditions: Homo sapiens
BJ [6] = assay: cells; type: functional, cell-based; conditions: Homo sapiens
BJ [7] = assay: cytotoxicity toward BJ-TERT-LT-ST fibroblasts, dose response, cell-based, RAS-independent, luminescence (AID 1935); type: functional; conditions: Homo sapiens;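 further: BJ fibroblasts immortalized with TERT plus LT and ST oncogenes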
[8] = cytotoxicity toward DRD oncogenic fibroblasts, dose response, cell-based, non-viral oncogenic, luminescence (AID 1934); type: functional; conditions: Homo sapiens
BJ [9] = assay: cytotoxicity toward Ras-transformed BJeLR fibroblasts, dose response, cell-based, alamar blue fluorescence, cherrypicked samples (AID 2631); type: functional; conditions: Homo sapiens;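 further: confirmatory dose-response assay in RAS-dependent BJ fibroblasts engineered with TERT, LT and ST, with cytotoxicity read by fluorescence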
INS1 = assay: beta cell apoptosis inhibitors, cytokine rescue, dose response, luminescence, retest (AID 449756); type: functional, cell-based; conditions: Rattus norvegicus;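 further: cell death triggered by IL-1 beta plus TNF-alpha plus IFN-gamma mixture; protective hits raise ATP signal compared with cytokine alone wells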
[10] = microbe, parasite or virus in culture; type: functional; conditions: Mycobacterium tuberculosis
Prothrombin = Prothrombin (Homo sapiens, UniProt P00734); assay: Thrombin 1536 HTS Dose Response Confirmation. [Related pubchem assays: 1046 (Thrombin 1536 HTS; hits were confirmed in this assay)]; type: functional
H4 = assay: Luminescence Cell-Based Dose Response HTS to Identify Activators of 5'UTR Stem-Loop Driven Prion Protein mRNA Translation in H4 Neuroglioblastoma Cells. [Related pubchem assays: 1829 (Project Summary), 1814 (Primary HTS)]; type: functional; conditions: Homo sapiens
P388/ADR = assay: cells; type: functional; conditions: Mus musculus
SN12K1 = assay: cells; type: functional; conditions: Homo sapiens
P388 = assay: cells; type: functional; conditions: Mus musculus
[11] = HEp-2 cell cytotoxicity, dose response, cytotoxicity control for RSV inhibitor project, HTS (AID 2410); type: functional; conditions: human respiratory syncytial virus
[12] = intracellular Trypanosoma cruzi inhibitors in host cells – cell-based, plate reader, cherry-pick samples, set 3, dose response (AID 651818); type: functional;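 further: compounds incubated with infected cells for about four days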

## Cc1ccc(NC(=O)CN(C)C(=O)COc2cccc3cccnc23)cc1
[1]
  IC50: 44.5 µM (active)

## COc1ccc(NC(=O)c2cccc(Oc3ccccc3)c2)cn1
Caspase-3
  IC50: 17.5 µM (active)
[2]
  IC50: 4.98 µM (active)
[3]
  IC50: 15.6 µM (active)
[4]
  IC50: 16.4 µM (active)

## O=C(Cc1ccc(Cl)cc1)c1c[nH]c(C(=O)NCc2cccnc2)c1
BJ [5]
  EC50: 11.3 µM (inconclusive)
BJ [6]
  EC50: 6.96 µM (active)
BJ [7]
  EC50: > 150 µM (inconclusive)
[8]
  EC50: > 150 µM (not active)
BJ [9]
  EC50: 4.8 µM (active)
INS1
  AC50: 0.907 µM (active)

## CCN(Cc1ccncc1)Cc1c(O)ccc2cc(Br)ccc12
[1]
  IC50: > 50 µM (not active)

## COc1cc(CN2CCN(c3ccccc3F)CC2)c([N+](=O)[O-])cc1OC
[1]
  IC50: > 50 µM (not active)

## Cc1ccc(NS(=O)(=O)c2ccc(NC(=O)CN(c3cc([N+](=O)[O-])ccc3C)S(C)(=O)=O)cc2)c(C)c1
BJ [5]
  EC50: 39.7 µM (active)
BJ [6]
  EC50: > 75 µM (not active)
[10]
  CC50: 4.92 µM (active)
BJ [7]
  EC50: > 150 µM (inconclusive)
[8]
  EC50: > 75 µM (not active)
BJ [9]
  EC50: > 133 µM (inactive)
INS1
  AC50: 1.49 µM (active)

## CCn1c(SCC(N)=O)nnc1C(C)C
Prothrombin
  IC50: > 50 µM (not active)

## Cc1ccc(OCC(=O)N2CCC(N3CCCCCC3)CC2)cc1
Prothrombin
  IC50: > 50 µM (not active)

## Cc1cccc(NC(=O)COc2ccc(Br)cc2C)n1
Caspase-3
  IC50: 13.9 µM (active)
[2]
  IC50: 4.31 µM (active)
[3]
  IC50: 9.12 µM (active)
[4]
  IC50: > 100 µM (inactive)

## Cn1c(C(=O)Nc2ccc3c(c2)OCO3)cc2sccc21
H4
  EC50: 35 µM (active)
Caspase-3
  IC50: 14.4 µM (active)
[2]
  IC50: 4.52 µM (active)
[3]
  IC50: 16.1 µM (active)
[4]
  IC50: 19.5 µM (active)

## CN1CCN(P2(=S)Oc3ccc4ccccc4c3-c3c(ccc4ccccc34)O2)CC1
P388/ADR
  GI50: 26.2 µM (inactive)
SN12K1
  GI50: 21.8 µM (inactive)
P388
  GI50: 24.1 µM (inactive)

## CC(C)=CCC/C(C)=C/CCC1(C)C=Cc2c(c3ccccc3oc2=O)O1 (centres undefined)
P388/ADR
  GI50: 20.2 µM (inactive)
SN12K1
  GI50: 16.9 µM (inactive)
P388
  GI50: 15.2 µM (inactive)

## COC1=C2CC(C)CC(OC)C(O)C(C)/C=C(\C)C(OC(N)=O)C(OC)/C=C\C=C(/C)C(=O)NC(=C(/C=N/C(C)(C)C)C1=O)C2=O (centres undefined)
P388/ADR
  GI50: 3.72 µM (inactive)
SN12K1
  GI50: 3.64 µM (inactive)
P388
  GI50: 2.33 µM (inactive)

## CCOC(=O)/C=C/c1c(C)[nH]c(=O)[nH]c1=O
P388/ADR
  GI50: 169 µM (inactive)
SN12K1
  GI50: > 250 µM (inactive)
P388
  GI50: 158 µM (inactive)

## S=C(N/N=C/c1ccc2ncccc2c1)Nc1ccccc1
[11]
  CC50: 31.2 µM (active)
BJ [5]
  EC50: 27.7 µM (active)
BJ [6]
  EC50: 10.7 µM (active)
BJ [7]
  EC50: > 150 µM (inconclusive)
[8]
  EC50: 14.3 µM (active)
BJ [9]
  EC50: > 133 µM (inactive)

## C/C(=N\NS(=O)(=O)c1ccccc1)c1ccccc1
P388/ADR
  GI50: > 100 µM (inactive)
SN12K1
  GI50: > 100 µM (inactive)
P388
  GI50: > 100 µM (inactive)

## Cc1ccc(S(=O)(=O)Nc2ccc3c(c2)CC(=O)N([C@H](C)CO)C[C@@H](C)[C@H](CN(C)Cc2ccc(C(=O)Nc4ccccc4N)cc2)O3)cc1
[12]
  AC50: 2.94 µM (active)

## C[C@@H]1CN([C@H](C)CO)C(=O)Cc2cc(NC(=O)c3ccncc3)ccc2O[C@H]1CN(C)Cc1ccc(-c2ccccc2)cc1
[12]
  AC50: 3.08 µM (active)

## C[C@@H]1CN([C@H](C)CO)C(=O)c2cccc(NC(=O)c3nc4ccccc4s3)c2O[C@H]1CN(C)Cc1ccc(C(=O)Nc2ccccc2N)cc1
[12]
  AC50: 1.49 µM (active)

## C[C@@H]1CN([C@@H](C)CO)C(=O)c2cc(NC(=O)Nc3ccc(C(F)(F)F)cc3)ccc2O[C@@H]1CN(C)S(=O)(=O)c1ccc(F)cc1
[12]
  AC50: 4.21 µM (active)

## C[C@@H]1CN([C@H](C)CO)C(=O)Cc2cc(NS(=O)(=O)c3ccccc3)ccc2O[C@@H]1CN(C)Cc1ccc(Oc2ccccc2)cc1
[12]
  AC50: 4.87 µM (active)

## Nc1cc(Cl)nc(N/N=C/c2c(O)ccc3ccccc23)n1
Caspase-3
  IC50: 48 µM (active)
[2]
  IC50: 5.83 µM (active)
[3]
  IC50: > 100 µM (inactive)
[4]
  IC50: > 100 µM (inactive)

## C=C(C)C(=O)O[C@H]1CC2=C[C@@H](C[C@@]3(C)O[C@@H]3[C@H]3OC(=O)C(=C)[C@@H]31)OC2=O [ELEPHANTOPIN]
P388/ADR
  GI50: 0.166 µM (active)
SN12K1
  GI50: 4.73 µM (inactive)
P388
  GI50: 0.124 µM (active)
